Reference: US8399422B2, “Compositions for transfection of oligonucleotides active for gene silencing and their biological and therapeutical applications” (Polyplus-Transfection, priority 2006, dated 2013)

Legend:
[1] = tested on: luciferase gene (pGL3) stably expressed by A549-GL3Luc cells; test: Luciferase gene (pGL3) silencing by GL3Luc siRNA transfection of A549-GL3Luc cells; assay type: cell-based, human; conditions: 48 h
Description: A549 (human lung carcinoma, ATCC No CCL-185) cells stably expressing the GL3 luciferase (Photinus pyralis luciferase under the control of SV40 elements) were obtained after stable transfection of pGL3Luc plasmid (Clontech). A549-GL3Luc cells were grown in RPMI-1640 and supplemented with 10% fetal bovine serum, 2 mM glutamax, 100 units/ml penicillin, 100 μg/ml streptomycin and 0.8 μg/ml G418 (Promega). All the cells were maintained at 37° C. in a 5% CO2 humidified atmosphere.
One day before transfection, 2.5×10^4 cells were seeded in 24-well tissue culture plate in 1 ml fresh complete medium containing 10% FBS. Before transfection, complexes of siRNA/transfection reagent were prepared. The desired amount of siRNAs was diluted in 100 μl of serum-free medium. The solution was mixed with a Vortex for 10 seconds. Then, 0.5 μl to 3 μl of amphiphilic molecules-based formulations were added to siRNA solution. The final mixture was mixed with a Vortex for 10 seconds, and left for 10 minutes at room temperature. Then, 100 μl of complexes solution were added per well and the plates were incubated at 37° C. […]
For all transfection protocols, the plates were further incubated at 37° C. for 48 h.
Luciferase gene expression was measured using a commercial kit (Promega, France). After removing the complete medium, three washings with 1 ml of PBS solution were made. Then, 100 μl of 1× lysis buffer were added per well, and the plate was incubated at room temperature for 30 minutes. The lysates were collected and centrifuged at 14,000 g for 5 minutes. The luciferase assay was assessed with 5 μl of lysate after injection of 100 μl of luciferin solution. The luminescence (RLU) was monitored with an integration over 10 seconds with a luminometer (LB960, Berthold, France). Results are expressed as light units integrated over 10 seconds (RLU), per mg of cell protein using the BCA assay (Pierce, France).
As a target model of endogenous reporter gene, A549 cells stably expressing the GL3 luciferase were used (Photinus pyralis luciferase under the control of SV40 elements). A well defined and conventional siRNA, chemically produced, and sequence-specific GL3Luc siRNA of SEQ ID No 1 and 2 composed of a short dsRNA of 19 nucleotides matching the GL3Luc mRNA and comprising 3′-overhangs of 2 deoxyribonucleotides (dT) was used for the transfection experiments. A formulation of cationic amphiphile MONI at 1 mM and combined with neutral phospholipid DOPE at 1 mM in ethanol was prepared. SiRNA diluted in serum-free medium (100 μl) was then complexed with 2 μl of the formulation of MONI/DOPE (1 mM/1 mM in ethanol). The resulting solution of transfection complexes was added on the cells growing in medium containing serum and cells were finally exposed to siRNA concentration range from 100 to 2000 pM (FIG. 1). The silencing efficiency was determined 48 h post-transfection by measuring the luciferase activity with a standard luminescence assay normalized by the protein content of cell lysates. The luciferase activity (expressed as RLU/mg of protein) was inhibited up to 90% when the transfection was performed with 2000 pM of siRNA.
Formulations composed of amphiphilic cationic molecule/DOPE (1 mM/2 mM in 10% ethanol and water) were used to complex siRNA and transfect A549-GL3Luc cells. Luciferase gene expression was measured after 48 h incubation period. Experiments were made in triplicates and the GL3 luciferase silencing efficiency was calculated from the luciferase level of transfected cells with a control GL2-Luc siRNA and normalized by the content of protein in the cell lysates.

[2] = tested on: luciferase gene (pGL3) stably expressed by A549-GL3Luc cells; test: Reverse transfection in 96-well plate, luciferase silencing in A549-GL3Luc cells; assay type: cell-based, human; conditions: transfected with liposomal MONI/DOPE (½ mM), 48 h
Description: GL3Luc siRNA diluted in 50 μl of serum free medium were complexed (in 96-well tissue culture plate format, n=6) for 5 minutes with 1 μl of formulation composed of MONI/DOPE in water (1 mM/2 mM). Then, 10,000 A549-GL3Luc cells, stably expressing the luciferase gene, in 125 μl of medium containing serum were added per well. Luciferase gene expression was measured after 48 h incubation period. As unspecific siRNA control, siRNA matching the GL2 luciferase sequence were transfected in the same conditions. Luciferase gene expression was measured after 48 h incubation period and the luciferase activity was expressed as Relative Light Unit (RLU) normalized by the content of protein in the cell lysates (mg of protein). GL3 luciferase silencing efficiency (FIG. 3B) was calculated from the endogenous luciferase level of untransfected A549-GL3Luc cells normalized by the content of protein in the cell lysates.
Complexes of siRNA/transfection reagent were prepared first. […]
Luciferase gene expression was measured using a commercial kit (Promega, France). […] The luciferase assay was assessed with 5 μl of lysate after injection of 100 μl of luciferin solution. The luminescence (RLU) was monitored with an integration over 10 seconds with a luminometer (LB960, Berthold, France). Results are expressed as light units integrated over 10 seconds (RLU), per mg of cell protein using the BCA assay (Pierce, France). […]

GL2Luc siRNA: siRNA duplex SEQ ID No 3 and 4 matching the GL2 luciferase sequence, unspecific control (chain 1 CGUACGCGGAAUACUUCGATT; chain 2 TTGCAUGCGCCUUAUGAAGCU; chemistry not fully specified; one strand is listed 3' to 5') [reference compound]
luciferase level with unrelated GL2Luc siRNA ([1]; transfected with MONBI 1 mM/DOPE 2 mM in ethanol, same conditions): the luciferase level was not affected | effect of unrelated GL2Luc siRNA on luciferase activity ([1]; transfected with MONI/DOPE 1 mM/1 mM in ethanol, same conditions (100 to 2000 pM)): absence of effect on the luciferase activity | luciferase inhibition with unrelated GL2Luc siRNA, reverse transfection [2]: absence of luciferase inhibition
